# Several values for one entry are separate records, joined by “and”; a condition that tells them apart may be missing. Identical values can stand only once.
# System: Mycobacterium tuberculosis
# Type: cell-based
row,Structure (SMILES),Minimum inhibitory concentration
1,Cc1nnc(SCC2=C(C(=O)O)N3C(=O)[C@@H](NC(=O)Cn4cnnn4)[C@H]3SC2)s1 [Cefazolin],125 µg/mL and 250 µg/mL
2,O=C(Cc1cccs1)N[C@@H]1C(=O)N2C(C(=O)[O-])=C(C[n+]3ccccc3)CS[C@H]12 [Cephaloridine],63 µg/mL

# Source: patent US4100346A, “Certain 7(o-amino-methyl- or methylaminomethylphenyl- or cyclohexadienyl- or thienylacetamide)-3[1-carboxymethyl-(or ethyl- or propyl-)-tetrazol-5-ylthiomethyl]-3-cephem-4-carboxylic acids” (Bristol-Myers Company, priority 1976, dated 1978)
